Measured values published in publication PMC9553116 (The Journal of Pharmacology and Experimental Therapeutics, 2022).

Target: T1, MFN2 (FRET-MFN2) (Homo sapiens, UniProt O95140)
T1 sequence (O95140 1-757): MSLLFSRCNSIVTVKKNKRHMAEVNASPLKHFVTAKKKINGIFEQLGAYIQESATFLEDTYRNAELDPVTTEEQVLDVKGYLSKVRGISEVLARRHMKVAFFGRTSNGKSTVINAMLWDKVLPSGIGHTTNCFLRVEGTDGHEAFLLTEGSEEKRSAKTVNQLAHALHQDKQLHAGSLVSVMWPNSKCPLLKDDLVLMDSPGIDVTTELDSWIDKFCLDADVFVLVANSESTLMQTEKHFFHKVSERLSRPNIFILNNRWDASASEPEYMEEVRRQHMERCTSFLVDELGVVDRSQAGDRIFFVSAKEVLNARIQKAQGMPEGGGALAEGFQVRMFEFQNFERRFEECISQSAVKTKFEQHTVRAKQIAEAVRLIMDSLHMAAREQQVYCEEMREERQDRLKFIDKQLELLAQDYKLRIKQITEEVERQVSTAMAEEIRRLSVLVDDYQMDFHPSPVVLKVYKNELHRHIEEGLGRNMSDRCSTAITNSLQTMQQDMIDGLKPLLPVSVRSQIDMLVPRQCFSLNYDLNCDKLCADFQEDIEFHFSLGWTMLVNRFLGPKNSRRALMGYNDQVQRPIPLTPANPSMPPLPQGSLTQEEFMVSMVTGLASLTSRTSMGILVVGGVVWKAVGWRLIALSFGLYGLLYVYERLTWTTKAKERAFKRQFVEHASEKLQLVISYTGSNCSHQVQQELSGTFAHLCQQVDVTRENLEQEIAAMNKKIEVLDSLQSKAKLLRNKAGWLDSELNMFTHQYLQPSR
Assay: Cerulean/Venus FRET of MFN2 conformation, isolated mitochondria
Assay type: biochemical
Conditions: 1 uM compound, 4 h, room temperature, pH 7.4; allosteric

O=C(CCCCCc1ccccc1)N[C@H]1CC[C@H](O)CC1 [trans-MiM111, N-(trans-4-Hydroxycyclohexyl)-6-phenylhexanamide]
FRET: trans-MiM111 and CPR1-B promoted a relaxed WT MFN2 conformation
